In paper PMC6377466 (Proceedings of the National Academy of Sciences of the …, 2019):

Experiments:
[1] = molecular target: T1, KRAS166^G12V (Homo sapiens, UniProt P01116, G12V); test: SPR screen and waterLOGSY NMR; type: binding
T1 construct: gene KRAS; KRAS166

[2] = molecular target: T2, HRAS^G12V (Homo sapiens, UniProt P01112, G12V); test: cell BRET RAS-effector interaction assay, dose response […]; type: cell-based
T2 construct: full-length (RLuc8 fusion); with CRAF

[3] = molecular target: T3, NRAS^Q61H (Homo sapiens, UniProt P01111, Q61H); test: as above; type: cell-based
T3 construct: full-length (RLuc8 fusion); with CRAF

Structure (SMILES)	SPR screen and waterLOGSY NMR [1]	cell BRET RAS-effector interaction assay, dose response 5-20 μM [2]	cell BRET RAS-effector interaction assay, dose response 5-20 μM [3]
CCCN1CCN(C(=O)c2c[nH]cn2)CC(Cc2ccc(-c3ccccc3)cc2)C1=O (stereo not shown) [PPIN-1]	PPIN-1 and -2 were confirmed to bind to KRAS166^G12V		
COc1cccc(-c2cccc(CC3(C(=O)NCCCn4ccnc4)CCOCC3)c2)c1 [PPIN-2]	PPIN-1 and -2 were confirmed to bind to KRAS166^G12V		
COc1cccc(-c2ccc(Nc3ccc(CN(C)C)cc3)c(OC)c2F)c1 [Ch-3]		Ch-3 interferes with NRAS and HRAS isoforms using the BRET biosensor assay	Ch-3 interferes with NRAS and HRAS isoforms using the BRET biosensor assay
